For the experiment, the target named is T1, HPK1 (Homo sapiens, UniProt Q92918).
T1 construct: A HiBiT tag was introduced by CRISPR on the N terminus of HPK1 in Jurkat cells; host or cells: Jurkat cells (ATCC TIB-152), monoclonal line with CRISPR knock-in of HiBiT at the endogenous HPK1 locus
Nature of the experiment: HPK1 Cellular HiBit Degradation Assay. It counts as cell-based. As to conditions: HiBiT HPK1 Jurkat cells, 24 hrs; for DC50: concentration at which 50% of HPK1 was remaining, read-out: DC50 Category; for Dmax: Jurkat, maximum degradation vs DMSO vehicle control, read-out: Dmax Category. As to the method:
HPK1 Cellular HiBit Degradation Assay
A HiBiT tag was introduced by CRISPR on the N terminus of HPK1 in Jurkat cells (ATCC® TIB-152) to allow quantitation of HPK1 protein levels in a monoclonal human cell line. Cells were plated at 1×10^6 cells/mL, 30 uL/well (3×10^4 cells/well) in complete RPMI 1640 (10% heat inactivated FBS, 1% L-glutamine) in 384-well assay plates (Corning, cat. no. 3570). HPK1 chimeric targeting molecules (CTMs) were added in an 11 point dilution series (11-point, 3.16-fold) with a final assay concentration range of 10 uM to 0.1 nM. The parental Jurkat cell line, with no HiBiT insertion, was included in the assay as a background control. Cell treated with a DMSO vehicle control was used to determine the maximum signal defining 100% HPK1 in the cell. Cells were incubated for 24 hrs at 37° C./5% CO2. Following incubation, 30 uL of complete Nano-Glo HiBiT Lytic Detection Reagent (Promega cat. no. N3040) was added. Cells were incubated for 10 min at room temperature and luminescence was read on an EnVision plate reader (Perkin Elmer, 0.1 sec per well). Viability was assessed in the same plate using Cell Titer Fluor (Promega) and read on an EnVision plate reader to ensure results were not the effect of cytotoxicity. Percent HPK1 remaining per sample was calculated as follows:
[formula] % HPK1 remaining values were plotted as a function of compound concentration and curves were fit using the Prism (GraphPad) equation “log(inhibitor) vs response−Variable slope (four parameters)”. Dmax values were calculated by identifying the lowest % remaining and subtracting from 100. DC50 values were determined by extrapolating from the curve the concentration at which 50% of HPK1 was remaining based on the DMSO control.
HiBiT HPK1 Jurkat cell lines were used to evaluate the total protein levels of HPK1 in a robust human cellular high throughput format. The level of HPK1 remaining following treatment with HPK1 CTMs is reported as Dmax (maximum degradation) achieved at 24 hours when compared to vehicle treated controls. […] These decreases were not a result of cytotoxicity measured by a viability assessment.

T1 sequence (Q92918 whole entry): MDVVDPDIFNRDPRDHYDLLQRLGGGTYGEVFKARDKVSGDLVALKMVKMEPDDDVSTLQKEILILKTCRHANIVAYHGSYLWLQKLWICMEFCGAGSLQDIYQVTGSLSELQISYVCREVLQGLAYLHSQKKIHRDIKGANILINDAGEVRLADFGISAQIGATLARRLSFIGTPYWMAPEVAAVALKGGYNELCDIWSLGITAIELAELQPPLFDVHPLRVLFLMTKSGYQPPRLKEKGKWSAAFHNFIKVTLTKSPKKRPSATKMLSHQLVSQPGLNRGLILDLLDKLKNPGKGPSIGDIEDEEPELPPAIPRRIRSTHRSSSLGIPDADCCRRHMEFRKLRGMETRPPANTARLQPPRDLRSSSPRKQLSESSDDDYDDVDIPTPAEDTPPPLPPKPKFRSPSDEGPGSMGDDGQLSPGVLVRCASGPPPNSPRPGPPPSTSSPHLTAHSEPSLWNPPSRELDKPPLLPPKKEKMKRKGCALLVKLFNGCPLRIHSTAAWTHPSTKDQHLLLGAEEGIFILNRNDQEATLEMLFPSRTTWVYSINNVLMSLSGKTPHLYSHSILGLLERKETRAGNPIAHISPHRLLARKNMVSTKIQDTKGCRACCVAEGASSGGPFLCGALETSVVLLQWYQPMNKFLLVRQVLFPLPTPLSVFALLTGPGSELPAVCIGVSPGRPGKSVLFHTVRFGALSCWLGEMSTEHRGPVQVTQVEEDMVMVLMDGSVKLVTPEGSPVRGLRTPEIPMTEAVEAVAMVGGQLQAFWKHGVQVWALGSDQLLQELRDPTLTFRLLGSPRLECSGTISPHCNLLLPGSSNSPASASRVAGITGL

In the case of `CC(C)n1cnc2cc(-c3ccc4c(c3)N([C@H]3C[C@@H](N5CCCCC5)C3)C(=O)C43CCN(C(=O)C4CCN(S(=O)(=O)C5CCN(c6ccc(C7CCC(=O)NC7=O)cn6)CC5)CC4)CC3)nc(NC3CC3)c21` (mixture of isomers) [Example 160, (3RS)-3-[6-(4-{[4-({6-[4-(cyclopropylamino)-3-(propan-2-yl)-3H-imidazo[4,5-c]pyridin-6-yl]-2-oxo-1-[(1S,3S)-3-(piperidin-1-yl)cyclobutyl]-1,2-dihydrospiro[indole-3,4′-piperidin]-1′-yl}carbonyl)piperidin-1-yl]sulfonyl}piperidin-1-yl)pyridin-3-yl]piperidine-2,6-dione], the DC50 was below 100 nM and the Dmax was above 85%.

`CC(C)n1cnc2cc(-c3ccc4c(c3)N([C@H]3C[C@@H](N5CCCCC5)C3)C(=O)C43CCN(C(=O)C4CCN(C(=O)C5CCN(c6ccc(C7CCC(=O)NC7=O)cn6)CC5)CC4)CC3)nc(Nc3ccncc3F)c21` (mixture of isomers) [Example 77, (3RS)-3-[6-(4-{4-[(6-{4-[(3-Fluoropyridin-4-yl)amino]-3-(propan-2-yl)-3H-imidazo[4,5-c]pyridin-6-yl}-2-oxo-1-[(1S,3S)-3-(piperidin-1-yl)cyclobutyl]-1,2-dihydrospiro[indole-3,4′-piperidin]-1′-yl)carbonyl]piperidine-1-carbonyl}piperidin-1-yl)pyridin-3-yl]piperidine-2,6-dione]: the DC50 is below 100 nM and the Dmax lay within 70 to 85%.

Consider `CC(C)n1cnc2cc(-c3ccc4c(c3)N([C@H]3C[C@@H](N5CCCCC5)C3)C(=O)C43CCN(C(=O)CC4CCN(C(=O)[C@H]5CC[C@H](Oc6ccc(C7CCC(=O)NC7=O)cn6)CC5)CC4)CC3)nc(NC3CC3)c21` (stereo partly drawn) [Example 161, 3-(6-{[(1R,4R)-4-[4-(2-{6-[4-(cyclopropylamino)-3-(propan-2-yl)-3H-imidazo[4,5-c]pyridin-6-yl]-2-oxo-1-[(1S,3S)-3-(piperidin-1-yl)cyclobutyl]-1,2-dihydrospiro[indole-3,4′-piperidin]-1′-yl}-2-oxoethyl)piperidine-1-carbonyl]cyclohexyl]oxy}pyridin-3-yl)piperidine-2,6-dione], for which the DC50 was below 100 nM and the Dmax was above 85%.

As for `CC(C)n1cnc2cc(-c3ccc4c(c3)N([C@H]3C[C@@H](N5CCCCC5)C3)C(=O)C43CCN(C(=O)C4CCN(C(=O)[C@H]5CC[C@H](N(C)c6cccc7c6C(=O)N(C6CCC(=O)NC6=O)C7=O)CC5)CC4)CC3)nc(NC3CC3)c21` (mixture of isomers) [Example 133, 2-[(3RS)-2,6-dioxopiperidin-3-yl]-4-{methyl[(1R,4R)-4-[4-({6-[4-(cyclopropylamino)-3-(propan-2-yl)-3H-imidazo[4,5-c]pyridin-6-yl]-2-oxo-1-[(1S,3S)-3-(piperidin-1-yl)cyclobutyl]-1,2-dihydrospiro[indole-3,4′-piperidin]-1′-yl}carbonyl)piperidine-1-carbonyl]cyclohexyl]amino}-2,3-dihydro-1H-isoindole-1,3-dione], the DC50 lay within 500 to 1000 nM and the Dmax was 50 to 70%.

As to `CC(C)Nc1nc(-c2ccc3c(c2)N([C@H]2C[C@@H](N4CCCCC4)C2)C(=O)C32CCN(C(=O)C3(C)CCN(C(=O)C4CCN(c5ccc(C6CCC(=O)NC6=O)cn5)CC4)CC3)CC2)cc2ncn(C(C)C)c12` (stereo partly shown) [Example 166], the DC50 was below 100 nM and the Dmax is above 85%.

As to `CC(C)n1cnc2cc(-c3ccc4c(c3)N([C@H]3C[C@@H](N5CCCCC5)C3)C(=O)C43CCN(C(=O)C4CCN(CCC5CCN(c6ccc(C7CCC(=O)NC7=O)cn6)CC5)CC4)CC3)nc(Nc3ccccc3F)c21` (mixture of isomers) [Example 98, (3RS)-3-{6-[4-(2-{4-[(6-{4-[(2-fluorophenyl)amino]-3-(propan-2-yl)-3H-imidazo[4,5-c]pyridin-6-yl}-2-oxo-1-[(1S,3S)-3-(piperidin-1-yl)cyclobutyl]-1,2-dihydrospiro[indole-3,4′-piperidin]-1′-yl)carbonyl]piperidin-1-yl}ethyl)piperidin-1-yl]pyridin-3-yl}piperidine-2,6-dione], the DC50 is 500 to 1000 nM and the Dmax is above 85%.

In the case of `CC(C)n1cnc2cc(-c3ccc4c(c3)N([C@H]3C[C@@H](N5CCCCC5)C3)C(=O)C43CCN(C(=O)C4(C)CCN(C(=O)C5CCN(c6ccc(C7CCC(=O)NC7=O)nc6)CC5)CC4)CC3)nc(Nc3ccncc3F)c21` (mixture of isomers) [Example 120, (3RS)-3-[5-(4-{4-[(6-{4-[(3-fluoropyridin-4-yl)amino]-3-(propan-2-yl)-3H-imidazo[4,5-c]pyridin-6-yl}-2-oxo-1-[(1S,3S)-3-(piperidin-1-yl)cyclobutyl]-1,2-dihydrospiro[indole-3,4′-piperidin]-1′-yl)carbonyl]-4-methylpiperidine-1-carbonyl}piperidin-1-yl)pyridin-2-yl]piperidine-2,6-dione], the DC50 is below 100 nM and the Dmax fell in the range of 70 to 85%.

With `COC1CC(C(=O)N2CCC3(CC2)C(=O)N([C@H]2C[C@@H](N4CCCCC4)C2)c2cc(-c4cc5ncn(C(C)C)c5c(NC5CC5)n4)ccc23)CN(C(=O)C2CCN(c3ccc(C4CCC(=O)NC4=O)cn3)CC2)C1` (mixture of isomers) [Example 256, (3RS)-3-(6-{4-[3-({6-[4-(cyclopropylamino)-3-(propan-2-yl)-3H-imidazo[4,5-c]pyridin-6-yl]-2-oxo-1-[(1S,3S)-3-(piperidin-1-yl)cyclobutyl]-1,2-dihydrospiro[indole-3,4′-piperidin]-1′-yl}carbonyl)-5-methoxypiperidine-1-carbonyl]piperidin-1-yl}pyridin-3-yl)piperidine-2,6-dione], the DC50 lay within 100 to 500 nM and the Dmax lay in the range of 50 to 70%.

For `CC(C)n1cnc2cc(-c3ccc4c(c3)N([C@H]3C[C@@H](N5CCCCC5)C3)C(=O)C43CCN(C(=O)[C@@H]4CCN(C(=O)[C@H]5CC[C@H](Nc6cccc7c6C(=O)N(C6CCC(=O)NC6=O)C7=O)CC5)C4)CC3)nc(NC3CC3)c21` (mixture of isomers) [Example 10, 2-[(3RS)-2,6-dioxopiperidin-3-yl]-4-{[(1R,4R)-4-[(3R)-3-({6-[4-(cyclopropylamino)-3-(propan-2-yl)-3H-imidazo[4,5-c]pyridin-6-yl]-2-oxo-1-[(1S,3S)-3-(piperidin-1-yl)cyclobutyl]-1,2-dihydrospiro[indole-3,4′-piperidin]-1′-yl}carbonyl)pyrrolidine-1-carbonyl]cyclohexyl]amino}-2,3-dihydro-1H-isoindole-1,3-dione], the DC50 was below 100 nM and the Dmax was 70 to 85%.

Take `CC(C)n1cnc2cc(-c3ccc4c(c3)N([C@H]3C[C@@H](N5CCCCC5)C3)C(=O)C43CCN(C(=O)C4CCN(C(=O)[C@H]5CC[C@H](C(=O)N6CCc7cc(C8CCC(=O)NC8=O)ccc7C6)CC5)CC4)CC3)nc(Nc3ccccc3F)c21` (stereo partly drawn) [Example 48, 3-(2-((1R,4R)-4-(4-(6-(4-((2-fluorophenyl)amino)-3-isopropyl-3H-imidazo[4,5-c]pyridin-6-yl)-2-oxo-1-((1S,3S)-3-(piperidin-1-yl)cyclobutyl)spiro[indoline-3,4′-piperidine]-1′-carbonyl)piperidine-1-carbonyl)cyclohexane-1-carbonyl)-1,2,3,4-tetrahydroisoquinolin-6-yl)piperidine-2,6-dione]: the DC50 is below 100 nM and the Dmax is 70 to 85%.

`CC(C)n1cnc2cc(-c3ccc4c(c3)N([C@H]3C[C@@H](N5CCCCC5)C3)C(=O)C43CCN(C(=O)[C@@H]4CCN(C(=O)C5CCN(c6ncc(C7CCC(=O)NC7=O)cn6)CC5)C4)CC3)nc(Nc3ccccc3F)c21` (stereo partly drawn) [Example 158, 3-(2-(4-((R)-3-(6-(4-((2-fluorophenyl)amino)-3-isopropyl-3H-imidazo[4,5-c]pyridin-6-yl)-2-oxo-1-((1S,3S)-3-(piperidin-1-yl)cyclobutyl)spiro[indoline-3,4′-piperidine]-1′-carbonyl)pyrrolidine-1-carbonyl)piperidin-1-yl)pyrimidin-5-yl)piperidine-2,6-dione]: the DC50 was below 100 nM and the Dmax fell in the range of 70 to 85%.

For the origin of these results see patent publication US12091426B2, “Bifunctional degraders of hematopoietic progenitor kinase and therapeutic uses thereof” (Nurix Therapeutics, Inc., priority 2021, dated 2024).
